SMILES strings stand for the structures.

In one test the target is T1, αIIbβ3 (Mus musculus, UniProt O54890+Q9QUM0).
T1 construct: Washed platelets from C57BL/6J mice suspended in Tyrode's solution; endogenous in cells; host or cells: washed platelets from C57BL/6J mice
T1 sequence (Q9QUM0 32-1033): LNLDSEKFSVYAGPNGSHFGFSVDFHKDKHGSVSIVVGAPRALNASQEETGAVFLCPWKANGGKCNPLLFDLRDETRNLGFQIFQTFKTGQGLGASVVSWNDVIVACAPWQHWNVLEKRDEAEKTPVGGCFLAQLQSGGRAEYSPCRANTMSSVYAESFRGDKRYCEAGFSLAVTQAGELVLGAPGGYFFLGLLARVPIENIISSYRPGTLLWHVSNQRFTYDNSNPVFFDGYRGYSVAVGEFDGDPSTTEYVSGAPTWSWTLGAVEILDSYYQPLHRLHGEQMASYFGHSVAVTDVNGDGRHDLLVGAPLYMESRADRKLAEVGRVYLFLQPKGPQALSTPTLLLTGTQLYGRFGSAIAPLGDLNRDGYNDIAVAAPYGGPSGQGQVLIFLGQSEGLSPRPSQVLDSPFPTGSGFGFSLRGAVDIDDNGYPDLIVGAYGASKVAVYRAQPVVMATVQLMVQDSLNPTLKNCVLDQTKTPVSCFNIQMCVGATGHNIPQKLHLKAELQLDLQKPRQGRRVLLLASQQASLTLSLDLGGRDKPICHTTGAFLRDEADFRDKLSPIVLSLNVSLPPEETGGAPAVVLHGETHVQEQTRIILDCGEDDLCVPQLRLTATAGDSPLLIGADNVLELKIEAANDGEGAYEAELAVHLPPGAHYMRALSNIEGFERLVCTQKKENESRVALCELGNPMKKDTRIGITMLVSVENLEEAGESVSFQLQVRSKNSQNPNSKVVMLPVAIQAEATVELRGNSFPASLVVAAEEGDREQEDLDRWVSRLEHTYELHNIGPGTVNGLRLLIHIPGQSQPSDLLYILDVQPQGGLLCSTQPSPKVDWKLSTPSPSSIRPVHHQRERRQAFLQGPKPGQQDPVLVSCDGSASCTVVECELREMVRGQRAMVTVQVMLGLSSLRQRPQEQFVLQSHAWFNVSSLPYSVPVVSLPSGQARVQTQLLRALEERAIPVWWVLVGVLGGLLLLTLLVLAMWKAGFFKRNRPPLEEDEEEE
T1 sequence (O54890 26-787): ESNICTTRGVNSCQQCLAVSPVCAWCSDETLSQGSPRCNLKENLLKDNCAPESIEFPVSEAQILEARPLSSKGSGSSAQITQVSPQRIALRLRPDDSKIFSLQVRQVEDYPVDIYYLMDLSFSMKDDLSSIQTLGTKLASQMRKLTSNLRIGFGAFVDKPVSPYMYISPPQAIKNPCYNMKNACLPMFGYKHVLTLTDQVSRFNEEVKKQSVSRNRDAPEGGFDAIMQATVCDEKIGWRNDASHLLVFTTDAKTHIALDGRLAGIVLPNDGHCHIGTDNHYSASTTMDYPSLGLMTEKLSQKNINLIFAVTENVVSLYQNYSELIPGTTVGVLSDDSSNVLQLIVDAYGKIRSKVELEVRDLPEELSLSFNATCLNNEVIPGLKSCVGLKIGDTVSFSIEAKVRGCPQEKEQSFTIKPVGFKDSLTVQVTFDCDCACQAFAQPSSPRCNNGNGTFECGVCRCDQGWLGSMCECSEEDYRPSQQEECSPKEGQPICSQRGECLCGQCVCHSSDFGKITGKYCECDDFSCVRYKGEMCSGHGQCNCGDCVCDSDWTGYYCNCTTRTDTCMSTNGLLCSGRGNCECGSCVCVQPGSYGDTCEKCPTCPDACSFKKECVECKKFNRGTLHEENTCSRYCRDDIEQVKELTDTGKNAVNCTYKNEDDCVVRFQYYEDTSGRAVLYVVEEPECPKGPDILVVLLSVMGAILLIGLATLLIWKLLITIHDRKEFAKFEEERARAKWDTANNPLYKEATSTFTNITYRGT
Briefly: Thrombin-induced fibrinogen binding to platelets (integrin ligand binding function). The following applies: 100 μM EGTA. Type of test: cell-based, C57BL/6J mice. The procedure: Platelets were then added with buffer or 1 mM CaCl2). Washed platelets suspended in Tyrode's solution with 1 mM CaCl2 were used as a control. Platelets were incubated with Oregon Green-labeled fibrinogen and thrombin (0.1 U/ml) at 22° C. for 30 min. Quantitative results were expressed as fibrinogen binding indices (geomean of fluorescence intensity of stimulated platelets/geomean of fluorescence intensity of unstimulated platelets; n=3).

In a further test the test system is washed GFP platelets. Briefly: Clearance of transfused cold-stored washed GFP platelets (flow cytometry). Type of test: in vivo, C57BL/6J mice. The following applies: 50 uM EGTA, stored at 4° C. for 24 hours, retro-orbital injection. The procedure: To monitor the life span of transfused platelets in circulation, a method that can easily differentiate the transfused platelets from recipient platelets was developed. Platelets from C57BL/6-Tg(CAGEGFP)1 Osb/J mice (GFP mice) (From Jackson Laboratories) are GFP positive that are distinct from the recipient platelets by flow cytometry assay (FIG. 6A). C57BL/6J mice were injected retro-orbitally with washed GFP platelets (2.5×10^8 per mouse). 60 μl blood was collected from mice and PRP was analyzed by flow cytometry. Quantitative results were expressed as percentage of survived transfused platelets (GFP positive cells at 5 min after transfusion was set to 100%; mean±SD; n=5). […]
C57BL/6J mice were injected retro-orbitally with fresh washed GFP platelets or GFP platelets stored at 4° C. for 24 hours (2.5×10^8 per mouse) with or without 1 mM RGDS. Blood was collected from mice and platelets were analyzed by flow cytometry. Quantitative results were expressed as percentage of survived transfused platelets (GFP positive cells of transfused fresh platelets at 5 min after transfusion was set to 100%, n=4). […]
Blood was collected from mice and platelets were analyzed by flow cytometry. Quantitative results were expressed as percentage of survived transfused platelets (GFP positive cells of transfused fresh platelets at 5 min after transfusion was set to 100%, n=4). […]
Background: A flow cytometer gives signals particle by particle.

In test [1] the test system is washed platelets from C57BL/6 mice. Kind of test: Cold storage of washed mouse platelets: aggregation and single platelet counts. The class given is cell-based. As to conditions: presence of EGTA, 4° C. for various time. The procedure:
To investigate the mechanism of the rapid clearance after cold storage, washed platelets from C57BL/6 mice were suspended in Ca^++ free Tyrode's solution (12 mM NaHCO3, 138 mM NaCl, 5.5 mM glucose, 2.9 mM KCl, 2 mM MgCl2, 0.42 mM NaH2PO4, 10 mM HEPES, pH 7.4). and stored at RT or 4° C. Washed platelets from C57BL/6 mice were stored at RT or 4° C. for 24 hours. After storage, platelets were incubated with Oregon Green-labeled fibrinogen at 22° C. for 30 min. Fibrinogen binding to platelets was analyzed by flow cytometry. […] To confirm this observation, single platelet count was measured using a HEMAVET HV950FS multispecies hematology analyzer. Indeed, platelet counts were reduced dramatically after platelets were stored at 4° C. for over 24 hours (FIG. 1B).
To determine the molecular mechanism by which cold induces platelet activation, washed platelets prepared from C57BL/6 mice were stored at RT, cold, or cold with O-sialoglycoprotein endopeptidase (OSGE). […] GPIbα-dependent platelet activation is one of the major mechanisms leading to rapid clearance of cold-stored platelets.
If cold-induced aggregation is due to integrin activation, integrin inhibitors should be able to inhibit this process. Washed platelets from C57BL/6 mice, suspended in Ca^++ free Tyrode's solution, were added with 1 mM RGDS and stored at 4° C. for 24 hours. […]

In test [2] the test system is washed platelets from C57BL/6J mice. Briefly: Thrombin-induced platelet aggregation. The class given is cell-based. The procedure: Platelets were then added with buffer or 1 mM CaCl2). Washed platelets suspended in Tyrode's solution with 1 mM CaCl2 were used as a control. Platelet aggregation was induced by addition of thrombin (0.025 U/ml).
A further test has as its system PRP from C57BL/6 mice. Kind of test: Cold storage of mouse PRP: aggregation and platelet counts. Type of test: cell-based. The following applies: PRP with EGTA. The source says:
This conclusion is drawn based on the experiments using washed platelets. Although a small portion of platelet products uses platelet additive solution (PAS), most platelet products used for transfusion are in plasma. Therefore, whether PRP has a similar phenotype as observed in washed platelets was examined.

The subject of test [3] is cold-stored PRP from C57BL/6-Tg(CAGEGFP)1 Osb/J. Briefly: Clearance of transfused cold-stored GFP platelets in PRP. The class given is in vivo, C57BL/6J mice. The following applies: inclusion of EGTA, retro-orbital injection. The procedure: C57BL/6J mice were injected retro-orbitally with fresh or cold-stored PRP (2.5×10^8 per mouse) from C57BL/6-Tg(CAGEGFP)1 Osb/J. Blood was collected from the recipients and platelets were analyzed by flow cytometry, n=4). Rapid clearance of cold-stored platelets in PRP is less severe than washed platelets.

The test system of test [4] is PRP prepared from healthy donors. Briefly: Cold storage of human PRP: platelet counts. Type of test: cell-based. The following applies: human PRP (ACD anticoagulant), various time points. The protocol:
Platelet counts were monitored at various time points. […] Fibrinogen binding to platelets increased after cold storage (FIG. 14B). […] The amount of serotonin secreted in the supernatant was then measured.

Test [5] has as its system washed platelets from C57BL/6J mice. Briefly: Platelet adhesion and spreading on fibrinogen. Type of test: cell-based. As to conditions: EGTA 100 μM. The procedure: Platelets were then added with buffer or 1 mM CaCl2). Washed platelets suspended in Tyrode's solution with 1 mM CaCl2 were used as a control. Platelets were then added to polystyrene dishes coated with 50 μg/mL of fibrinogen and incubated at 37° C. for 60 minutes and labeled with Rhodamine-Phalloidin and photographed using a fluorescence microscope. […] This conclusion was further confirmed by a fibrinogen binding assay.

In the case of `O=C(O)CN(CCOCCOCCN(CC(=O)O)CC(=O)O)CC(=O)O` [EGTA, ethylene glycol-bis(β-aminoethyl ether)-N,N,N′,N′-tetraacetic acid], at αIIbβ3 (then 1 mM CaCl2), the “reversal of the inhibition of fibrinogen binding” value is recorded as “reversed”. Besides, the “thrombin-induced fibrinogen binding to platelets” value on αIIbβ3 (thrombin 0.1 U/ml, 22° C. for 30 min) is reported as “completely inhibited”. In the test with washed GFP platelets, the “platelets that stayed in circulation for more than 2 hours” value is recorded as “About 75%” and the “rapid clearance of cold-stored platelets” value is given as “significantly inhibited rapid clearance”. Besides, in test [1], the cold-induced platelet aggregation entry is given as “completely inhibited cold-induced platelet aggregation” and the “reduction in platelet counts” value was “completely inhibited”. Further, in test [2] (EGTA 100 μM at RT, thrombin 0.025 U/ml), the “platelet aggregation induced by thrombin” value is on record as “inhibited platelet aggregation”. The “reversibility of the inhibition of platelet aggregation” value in test [2] (EGTA 100 μM, then 1 mM CaCl2) is “reversible”. Moreover, the “reduction in platelet counts by cold storage” value with PRP from C57BL/6 mice (4° C. for various time) is recorded as “effectively inhibited reduction in platelet counts”. Further, the “platelet aggregation in PRP” value with PRP from C57BL/6 mice (cold storage) was “inhibited platelet aggregation”. In addition, the “quick clearance of cold-stored platelets in PRP” value in test [3] is on record as “significantly reduced quick clearance”. Also, the “decrease of platelet counts after storage at 4° C.” value in test [4] was “inhibited”. In addition, the “platelet adhesion and spreading on fibrinogen” value in test [5] (50 μg/mL fibrinogen, 37° C. for 60 minutes) was “inhibited platelet adhesion and spreading on fibrinogen”. Besides, in test [5] (then 1 mM CaCl2), the “reversal of the inhibition of adhesion and spreading” value was “completely reversed”.

The values above are taken from US20190255114A1, “STORAGE OF PLATELETS” (University of Kentucky Research Foundation, priority 2018, published 2019).
